Experimental data reported in the NIST ThermoML archive (doi:10.1021/je500980a).

Conditions: Liquid

CCCCCCCCCC(=O)OCC [ethyl decanoate]
viscosity [mPa·s]
Conditions | 293.15 K | 313.15 K | 333.15 K | 353.15 K
101.3 kPa, Falling or rolling sphere viscometry | 2.34 | 1.59 | 1.16 | 0.888
101.3 kPa, Quartz crystal resonator | 2.33 | 1.59 | 1.16 | 0.893
10000 kPa, Quartz crystal resonator | 2.59 | 1.77 | 1.28 | 1
20000 kPa, Falling or rolling sphere viscometry | 2.94 | 1.96 | 1.44 | 1.1
20000 kPa, Quartz crystal resonator | 2.91 | 1.97 | 1.43 | 1.1
30000 kPa, Quartz crystal resonator | 3.22 | 2.18 | 1.59 | 1.21
40000 kPa, Falling or rolling sphere viscometry | 3.62 | 2.38 | 1.74 | 1.32
40000 kPa, Quartz crystal resonator | 3.57 | 2.39 | 1.74 | 1.32
50000 kPa, Quartz crystal resonator | 3.95 | 2.62 | 1.87 | 1.45
60000 kPa, Falling or rolling sphere viscometry | 4.4 | 2.85 | 2.06 | 1.56
60000 kPa, Quartz crystal resonator | 4.35 | 2.86 | 2.07 | 1.58
70000 kPa, Quartz crystal resonator | 4.8 | 3.14 | 2.2 | 1.72
80000 kPa, Falling or rolling sphere viscometry | 5.29 | 3.37 | 2.42 | 1.82
80000 kPa, Quartz crystal resonator | 5.23 | 3.44 | 2.37 | 1.84
90000 kPa, Quartz crystal resonator | 5.74 | 3.72 | 2.59 | 1.98
100000 kPa, Falling or rolling sphere viscometry | 6.3 | 3.96 | 2.81 | 2.1
100000 kPa, Quartz crystal resonator | 6.25 | 4.04 | 2.82 | 2.13
120000 kPa, Falling or rolling sphere viscometry | 7.45 | 4.62 | 3.23 | 2.4
120000 kPa, Quartz crystal resonator | 7.46 | 4.69 | 3.27 | 2.42
140000 kPa, Falling or rolling sphere viscometry | 8.78 | 5.35 | 3.7 | 2.73
140000 kPa, Quartz crystal resonator | 8.83 | 5.52 | 3.72 | 2.74
160000 kPa, Falling or rolling sphere viscometry | 10.3 | 6.18 | 4.22 | 3.08
160000 kPa, Quartz crystal resonator | 10.7 | 6.27 | 4.25 | 3.14
180000 kPa, Falling or rolling sphere viscometry | 12.06 | 7.11 | 4.78 | 3.46
180000 kPa, Quartz crystal resonator | 12.4 | 7.31 | 4.7 | 3.53
200000 kPa, Falling or rolling sphere viscometry | 14.1 | 8.16 | 5.41 | 3.88
200000 kPa, Quartz crystal resonator | 14.5 | 8.36 | 5.36 | 3.98
